Laboratory results: patent US20090012326A1 (priority 2006, published 2009)
Entries after “also recorded” stand apart in the source; their conditions may differ.

What was measured:
[1] = system: Wistar rats intoxicated with PQ
Method: The study was performed using (n=84) adults male Wistar rats obtained from Charles River S. A. (Barcelona, Spain), with a mean weight of 250±10 g. Animals were randomly distributed in number of two per polypropylene cages with a stainless steel net at the top and wood chips at the screen bottom, in a air-conditioned room (alternate cycles of 12 hours light and darkness, room temperature 22±2° C. and with a relative humidity of 50-60%) at least one week (quarantine) before starting the experience in order to acclimate to their surrounding conditions. Animals were allowed access to tap water and rat chow ad libitum during the quarantine period. Housing and experimental treatment of animals were in accordance with National Institutes of Health guidelines (ILAR 1996). The experiments complied with the current laws of Portugal.
(§1) The biochemical and histological studies were carried out with 60 animals, randomly distributed to ten groups. Each animal was individually housed during the experimental period in a polypropylene cage with a stainless steel net at the top and wood chips at the screen bottom. Tap water and rat chow were given ad libitum during the entire experiment. […] Each group was treated as follows: (doses were given per Kg/body weight):
For the evaluation of survival rate, 24 animals were randomly divided into four groups (control, NaSAL, PQ and PQ+NaSAL) of six animals each. […]

[2] = cited from earlier work
[3] = system: lung tissue of Wistar rats; details: rat, in vivo
Method: as §1
(I) Control group, n=6: animals treated with 0.9% NaCl. Animals were treated with one more administration of 0.9% NaCl two hours later and sacrificed 24 hours after the second injection;
(II) NaSAL group, n=18: animals treated with 0.9% NaCl. Animals were treated with one administration of NaSAL (200 mg/kg) two hours later and sacrificed 24 hours (n=6, NaSAL 24 h group), 48 hours (n=6, NaSAL 48 h group) and 96 hours (n=6, NaSAL 96 h group) after the second injection;
(III) PQ group, n=18: animals intoxicated with PQ (25 mg/kg). Animals were treated with one more administration of 0.9% NaCl two hours later and sacrificed 24 hours (n=6, PQ 24 h group), 48 hours (n=6, PQ 48 h group) and 96 hours (n=6, PQ 96 h group) after the second injection;
(IV) PQ+NaSAL group, n=18: animals intoxicated with PQ (25 mg/kg). Two hours later, animals were treated with NaSAL (200 mg/kg) and sacrificed 24 hours (n=6, PQ+NaSAL 24 h group), 48 hours (n=6, PQ+NaSAL 48 h group) and 96 hours (n=6, PQ+NaSAL 96 h group) after the second injection.
Two animals of each group were assigned to histological analysis. Lung samples were subjected to routine procedures for light microscopy (LM) and transmission electron microscopy (TEM) analysis. With the animals under anaesthesia, lung fixation was initiated in situ by perfusion through pulmonary artery, with 2.5% glutaraldehyde in 0.2 M sodium cacodylate buffer (pH 7.2-7.4) during 3 min. Subsequently, lungs were excised and sectioned into approximately 1 mm^3 cubic pieces. After two washing steps, of 30 minutes each with buffer solution, the specimens were dehydrated in graded alcohol for 2 hours, and then embedded in Epon resin. […]

Compound: O=C([O-])c1ccccc1O.[Na+] [sodium salicylate, 2-hydroxybenzoic acid sodium salt]
- survival ([1]; PQ 25 mg/Kg i.p., sodium salicylate 200 mg/Kg i.p. two hours after PQ, 30 days after PQ): 100%

Compound: CC(=O)Oc1ccccc1C(=O)O [acetylsalicylic acid]
- share of the total plasma salicylate in the acetylated form ([2]; 30 minutes after a dose of 0.65 g): 27%
- plasma half-life ([2]; in vivo): about 15 min

Compound: C[n+]1ccc(-c2cc[n+](C)cc2)cc1.[Cl-].[Cl-] [paraquat, 1,1′-dimethyl-4,4′-bipyridinium dichloride]
- lethality ([1]; intraperitoneal PQ dose, absence of treatment, at the end of 6 days): 100%
- lung structure (light and electron micrographs) [3]: a marked vascular congestion and a notorious generalized alveolar collapse; also recorded: areas of necrosis of the alveolar wall and macrophages, cellular debris and inflammatory infiltrate within the alveolar space; also recorded: an intense vascular congestion as well as the presence of cellular debris and phagocytes within the alveolar space
